Assay: Delivered dose study (unit spray collection apparatus, USCA)
Type: physicochemical
Procedure: Metered dose inhalers (MDIs) were prepared using deep drawn aluminum canisters (3M Corporation, Cltheroe, UK), 50 microliter Bespak PBT (polybutylene terephthalate) valves (BK0514719, Bespak Europe Ltd, Bergen Way, King's Lynn, Norfolk, PE30 2JJ) fitted with EPDM (ethylene-propylene diene terpolymer elastomer) diaphragm seals, and an Mk6 P&B actuator. The internal surface of each canister was coated with FEP (fluorinated ethylene propylene copolymer). The bulk formulation for cold filling individual canisters can be prepared by first admixing citric acid and the ethanol, and then adding the tiotropium bromide to the citric acid and ethanol mixture. HFA-134a propellant was then added to a separate batching vessel, and the mixture of tiotropium bromide, citric acid, and ethanol was then added be to the HFA-134a. The formulation was mixed at −50° C. The metered dose inhalers made according to Table 1 were designed to deliver 5 micrograms of Tiotropium (free base) per actuation.
The start of unit life delivered dose was determined using standard unit spray collection apparatus (USCA) fitted with a filter. For each determination, an MDI was attached to the USCA using a coupler and actuated a single time. Immediately prior to attachment, the MDI was shaken. Prior to collection of the test sample, the MDI was primed by actuating four times. Prior to each priming shot the MDI was shaken.

For C[N+]1(C)[C@@H]2C[C@@H](OC(=O)C(O)(c3cccs3)c3cccs3)C[C@H]1[C@@H]1O[C@@H]12 [tiotropium bromide], the “Start of life dose content uniformity” value (MDI with Table 1 formulation (0.1204 mg/ml tiotropium bromide, 0.04 wt. % citric acid, 15 wt. % ethanol, HFA-134a; FEP can), primed by actuating four times, single actuation, FIG. 5) was 4.3 mcg/actuation and the “uniformity of dose delivered on storage” value (MDI with Table 1 formulation, on storage, FIG. 7) was “remained constant on storage”.
